Consider two compounds from patent publication US12419339B2, “Aerosolized formulation” (priority 2018, dated 2025).

The format of this data set is physicochemical. To be noted: prior to aerosolization.

Where two headings read alike, the source gives them in different places.

For `CC1CCC(C(C)C)C(O)C1` (stereo not drawn) [1-menthol], the “liquid analysis, content” value by setting is: (formulation containing 1-menthol (83.1% water, 15.0% 2-hydroxy-propyl-β-cyclodextrin, 0.9% 1-menthol, 1% nicotine)) 0.8 % (w/w); (formulation containing 1-menthol) 8 mg/g. With `COc1cc(C=O)ccc1O` [vanillin], the “liquid analysis, content” value (formulation containing vanillin) was 5 mg/g.
